Measured values reported in patent US9814703B2, “Methods for treating cancer by activation of BMP signaling” (The Board of Trustees of the Leland Stanford Junior …, priority 2013, dated 2017).

Tests used:
[1] = system: primary human bladder urothelial cells; experiment: BMP pathway activation in cultured urothelial cells, BMP target gene expression by quantitative RT-PCR; assay type: cell-based; conditions: 20 ng/ml FK506, 12 hours
Source text: As Bmp4 and Bmp5 secreted from stromal cells have the potential to act on urothelium, we tested the ability of cultured urothelial cells to respond to BMP pathway activation. For this purpose we selected FK506, an FDA-approved drug recently shown to activate BMP pathway at concentrations below those required for its immunosuppressant effects^27. […] Loss of Shh expression in human invasive carcinomas, as noted previously (FIG. 1A), would be expected to disrupt this signal feedback; this expectation was confirmed by a dramatic reduction of BMP4 and BMP5 expression in human invasive urothelial carcinoma as compared to benign bladder (FIG. 4D).
For BBN-induced bladder carcinogenesis, a 0.1% concentration of BBN was provided to mice ad libitum for 4-6 months. […] Quantitative RT-PCR was used for measurement of RNA levels in samples isolated from the human and mouse bladder samples. […]
(§1) Bladder samples were snap frozen in liquid nitrogen, homogenized with a mortar and pestle, and RNA extracted with the RNeasy Plus Mini kit (Qiagen). For quantitative RT-PCR of mRNA transcripts, first-strand cDNA was made using the SuperScript III First-Strand Synthesis SuperMix (Invitrogen 18080-400). Quantitative RT-PCR was performed using iQ SYBR Green Supermix (Bio-Rad 170-8880) and the Bio-Rad iCycler. […]

[2] = system: BBN-induced bladder cancer; experiment: BBN-induced bladder carcinogenesis in mice, progression to invasive carcinoma (histopathology); assay type: in vivo
Source text: To investigate the role of Bmp pathway activity in bladder tumor progression and to test the possibility that Bmp pathway activation might stimulate urothelial differentiation, which in turn might impede tumor progression, we exposed mice to BBN for 4 months, then initiated treatment with FK506 for another month while also continuing exposure to BBN (FIG. 5A). We have previously noted that mice exposed to BBN for 4 months develop pre-malignant lesions indistinguishable from human carcinoma-in-situ but not invasive carcinoma, which requires further BBN exposure^6.
For BBN-induced bladder carcinogenesis, a 0.1% concentration of BBN was provided to mice ad libitum for 4-6 months. For Smo deletion experiments, a transgene expressing tamoxifen-activated Cre was used to selectively inactivate a conditional allele of Smo. To activate the BMP pathway, Alzet osmotic pumps were implanted subcutaneously to administer FK506 to mice exposed to BBN. Quantitative RT-PCR was used for measurement of RNA levels in samples isolated from the human and mouse bladder samples. […]
A 0.1% concentration of BBN (TCI America) was dissolved in drinking water, and BBN-containing water was provided to mice ad libitum for 4-6 months in a dark bottle. […] Bladders were collected and analyzed after 4 to 6 months of BBN administration. […]

[3] = system: primary human bladder stromal cells; experiment: Hh pathway stimulation of primary human bladder stromal cells, gene expression by quantitative RT-PCR; assay type: cell-based; conditions: 24 hours; for Expression of BMP4 increased as compared to the unstimulated control / Expression of BMP5 increased as compared to the unstimulated control / Expression of GLI1 increased as compared to the unstimulated control: serum-starved, SAG 200 nM or Shh conditioned medium (ShhN)
Source text: (§2) To determine whether Hh signaling regulates expression of BMP4 and BMP5 in human bladder, we first examined the expression of Hh pathway components in primary human bladder fibroblasts and epithelial cells. […] To evaluate response to the Hh signal, we treated cultured human bladder stromal and urothelial cells with ShhN protein or with the chemical pathway agonist SAG^24. […] Concomitant with the increase in GLI1 mRNA upon stimulation of the cultured human bladder stromal fibroblasts, we noted an increase in levels of BMP4 and BMP5 transcripts (FIG. 4B).
For BBN-induced bladder carcinogenesis, a 0.1% concentration of BBN was provided to mice ad libitum for 4-6 months. For Smo deletion experiments, a transgene expressing tamoxifen-activated Cre was used to selectively inactivate a conditional allele of Smo. To activate the BMP pathway, Alzet osmotic pumps were implanted subcutaneously to administer FK506 to mice exposed to BBN. Quantitative RT-PCR was used for measurement of RNA levels in samples isolated from the human and mouse bladder samples. For in vitro cultures, primary human bladder urothelial and stromal cells were treated with FK506 for 12 hours, or serum-starved and treated with SAG or Shh conditioned medium with or without cyclopamine for 24 hours prior to gene expression analyses.
Bladder samples were snap frozen in liquid nitrogen, homogenized with a mortar and pestle, and RNA extracted with the RNeasy Plus Mini kit (Qiagen). For quantitative RT-PCR of mRNA transcripts, first-strand cDNA was made using the SuperScript III First-Strand Synthesis SuperMix (Invitrogen 18080-400). Quantitative RT-PCR was performed using iQ SYBR Green Supermix (Bio-Rad 170-8880) and the Bio-Rad iCycler.
Primary human bladder urothelial cells (ScienCell 4320) and bladder stromal fibroblasts (ScienCell 4330) were cultured in Urothelial Cell Medium (ScienCell 4321) and Fibroblast Medium (ScienCell 2301) respectively to sub-confluency. Cells were then starved for 12 hours, followed by addition of Shh conditioned medium in the absence or in the presence of cyclopamine (3 uM, Toronto Research Chemicals), or treated with the Shh pathway agonist SAG (200 nM, Millipore) for 24 hours. In separate experiments, cells were treated with 20 ng/ml FK506 (Cayman Chemical) or DMSO for 12 hours. Following treatment, RNA was extracted using the Trizol reagent.

[4] = system: primary human bladder urothelial cells; experiment: Hh pathway stimulation of primary human bladder urothelial cells, gene expression by quantitative RT-PCR; assay type: cell-based; conditions: SAG 200 nM or ShhN, 24 hours
Source text: as §2
For BBN-induced bladder carcinogenesis, a 0.1% concentration of BBN was provided to mice ad libitum for 4-6 months. For Smo deletion experiments, a transgene expressing tamoxifen-activated Cre was used to selectively inactivate a conditional allele of Smo. […] Quantitative RT-PCR was used for measurement of RNA levels in samples isolated from the human and mouse bladder samples. […]
as §1

[5] = cyclopamine 3 uM added to Hh pathway stimulation

Molecule | Expression of BMP target gene CDKN1B increased as compared to the DMSO control [1] [fold] | Expression of BMP target gene ID4 increased as compared to the DMSO control [1] [fold] | Progression of bladder cancer in mice ([2]; low-dose FK506, murine BBN model) | Development of invasive carcinoma in treated mice ([2]; mice exposed to BBN 5 months, FK506 0.05 mg/kg/day by subcutaneous osmotic pump during the final month, cohort of 10 mice (control 7 of 9 invasive)) | Expression of BMP4 increased as compared to the unstimulated control [3] [fold] | Expression of BMP5 increased as compared to the unstimulated control [3] [fold] | Expression of GLI1 increased as compared to the unstimulated control [3] [fold] | Response of urothelial cells to Hh pathway stimulation (GLI1 expression) [4] | Effect of added cyclopamine on the stimulated increase of BMP4 and BMP5 expression [3, 5] | Effect of added cyclopamine on the stimulated increase of GLI1 expression [3, 5]
C=CC[C@@H]1/C=C(\C)C[C@H](C)C[C@H](OC)[C@H]2O[C@@](O)(C(=O)C(=O)N3CCCC[C@H]3C(=O)O[C@H](/C(C)=C/[C@@H]3CC[C@@H](O)[C@H](OC)C3)[C@H](C)[C@@H](O)CC1=O)[C@H](C)C[C@@H]2OC [FK506] | 2.4 | 1.6 | halts progression | no invasive carcinoma was observed |  |  |  |  |  | 
CNC1CCC(N(Cc2cccc(-c3ccncc3)c2)C(=O)c2sc3ccccc3c2Cl)CC1 (centres unmarked) [SAG] |  |  |  |  | 5.8 | 2 | 5.4 | did not respond |  | 
CC1=C2C[C@H]3[C@@H](CC=C4C[C@@H](O)CC[C@@]43C)[C@@H]2CC[C@]12O[C@@H]1C[C@H](C)CN[C@H]1[C@H]2C [cyclopamine] |  |  |  |  |  |  |  |  | reversed | reversed
ShhN: ShhN protein, Hh ligand, applied as Shh conditioned medium |  |  |  |  | 3.9 | 1.6 | 1.6 | did not respond |  | 
